{
  "source": "paper PMC5218480",
  "about": "(PLoS ONE, 2017)",
  "tested_on": "MV-4-11 cells",
  "experiment": "Gene expression microarray analysis (Affymetrix PrimeView) and GSEA",
  "format": "cell-based, human",
  "set-up": "RFU PODN (11730768_x_at) / Fold change /veh PODN (11730768_x_at) / RFU LINC00158 (11744669_a_at) / Fold change /veh LINC00158 (11744669_a_at) / RFU DUSP10 (11751237_a_at) / Fold change /veh DUSP10 (11751237_a_at) / RFU ID3 (11757404_x_at) / Fold change /veh ID3 (11757404_x_at) / RFU PLEKHG5 (11737974_s_at) / Fold change /veh PLEKHG5 (11737974_s_at) / RFU LRRC4B (11730491_at) / Fold change /veh LRRC4B (11730491_at) / RFU GIMAP4 (11747438_a_at) / Fold change /veh GIMAP4 (11747438_a_at) / RFU KRT8 (11758183_x_at) / Fold change /veh KRT8 (11758183_x_at) / RFU CNN1 (11734310_a_at) / Fold change /veh CNN1 (11734310_a_at) / RFU VPS37D (11726825_at) / Fold change /veh VPS37D (11726825_at) / RFU C10orf10 (11716522_x_at) / Fold change /veh C10orf10 (11716522_x_at) / RFU KIR2DL2 /// KIR2DL4 /// KIR2DL5A /// KIR2DL5B /// KIR2DS1 /// KIR2DS2 /// KIR2DS3 /// KIR2DS4 /// KIR3DL3 /// KIR3DL3 /// KIR3DS1 (11738374_at) / Fold change /veh KIR2DL2 /// KIR2DL4 /// KIR2DL5A /// KIR2DL5B /// KIR2DS1 /// KIR2DS2 /// KIR2DS3 /// KIR2DS4 /// KIR3DL3 /// KIR3DL3 /// KIR3DS1 (11738374_at) / RFU C1QL1 (11718748_at) / Fold change /veh C1QL1 (11718748_at) / RFU TMPRSS4 (11747572_a_at) / Fold change /veh TMPRSS4 (11747572_a_at) / RFU HAMP (11756126_x_at) / Fold change /veh HAMP (11756126_x_at) / RFU RNFT2 (11725882_a_at) / Fold change /veh RNFT2 (11725882_a_at) / RFU NR4A2 (11747474_a_at) / Fold change /veh NR4A2 (11747474_a_at) / RFU ABCC12 (11746883_a_at) / Fold change /veh ABCC12 (11746883_a_at) / RFU TMEM136 (11760407_x_at) / Fold change /veh TMEM136 (11760407_x_at) / RFU CLDN22 /// WWC2 (11732394_at) / Fold change /veh CLDN22 /// WWC2 (11732394_at) / RFU HLA-DPB1 (11760878_x_at) / Fold change /veh HLA-DPB1 (11760878_x_at) / RFU SPINT1 (11716480_a_at) / Fold change /veh SPINT1 (11716480_a_at) / RFU GAP43 (11754022_s_at) / Fold change /veh GAP43 (11754022_s_at) / RFU A4GNT (11735810_at) / Fold change /veh A4GNT (11735810_at) / RFU PRB3 (11715151_x_at) / Fold change /veh PRB3 (11715151_x_at) / RFU TUBB4B (11761932_at) / Fold change /veh TUBB4B (11761932_at) / RFU CAPN14 (11732068_a_at) / Fold change /veh CAPN14 (11732068_a_at) / RFU TMCC2 (11721928_a_at) / Fold change /veh TMCC2 (11721928_a_at) / RFU IRGQ (11745062_a_at) / Fold change /veh IRGQ (11745062_a_at) / RFU FAM174B (11720279_a_at) / Fold change /veh FAM174B (11720279_a_at) / RFU TMPRSS4 (11748680_a_at) / Fold change /veh TMPRSS4 (11748680_a_at) / RFU FAM212B (11763350_a_at) / Fold change /veh FAM212B (11763350_a_at) / RFU PLEKHG5 (11743358_a_at) / Fold change /veh PLEKHG5 (11743358_a_at) / RFU ZSCAN30 (11745921_a_at) / Fold change /veh ZSCAN30 (11745921_a_at) / RFU CMKLR1 (11741424_a_at) / Fold change /veh CMKLR1 (11741424_a_at) / RFU LOC101060620 /// MAPK8IP1 (11723275_at) / Fold change /veh LOC101060620 /// MAPK8IP1 (11723275_at) / RFU SPTSSB (11747773_x_at) / Fold change /veh SPTSSB (11747773_x_at) / RFU PRSS12 (11739890_at) / Fold change /veh PRSS12 (11739890_at) / RFU BIN1 (11741810_x_at) / Fold change /veh BIN1 (11741810_x_at) / RFU WNT11 (11732464_a_at) / Fold change /veh WNT11 (11732464_a_at) / RFU C10orf10 (11716521_a_at) / Fold change /veh C10orf10 (11716521_a_at) / RFU C5orf56 (11738089_at) / Fold change /veh C5orf56 (11738089_at) / RFU CYB561 (11721691_x_at) / Fold change /veh CYB561 (11721691_x_at) / RFU ANKRD19P (11752326_a_at) / Fold change /veh ANKRD19P (11752326_a_at) / RFU OR2T12 /// OR2T33 /// OR2T8 (11738714_s_at) / Fold change /veh OR2T12 /// OR2T33 /// OR2T8 (11738714_s_at) / RFU VCAN (11748164_a_at) / Fold change /veh VCAN (11748164_a_at) / RFU JSRP1 (11732532_at) / Fold change /veh JSRP1 (11732532_at) / RFU KRTAP10-11 (11738290_x_at) / Fold change /veh KRTAP10-11 (11738290_x_at) / RFU MYO3A (11730013_a_at) / Fold change /veh MYO3A (11730013_a_at) / RFU EBF3 (11725865_a_at) / Fold change /veh EBF3 (11725865_a_at) / RFU CAMK2N1 (11719241_x_at) / Fold change /veh CAMK2N1 (11719241_x_at) / RFU C5orf56 (11738088_a_at) / Fold change /veh C5orf56 (11738088_a_at) / RFU OLFML3 (11715873_a_at) / Fold change /veh OLFML3 (11715873_a_at) / RFU LOC100653217 /// NTM (11731650_a_at) / Fold change /veh LOC100653217 /// NTM (11731650_a_at) / RFU MAPK11 (11762145_a_at) / Fold change /veh MAPK11 (11762145_a_at) / RFU FIZ1 (11724087_x_at) / Fold change /veh FIZ1 (11724087_x_at) / RFU OASL (11726364_x_at) / Fold change /veh OASL (11726364_x_at) / RFU SOX15 (11748057_x_at) / Fold change /veh SOX15 (11748057_x_at) / RFU CD79A (11719716_a_at) / Fold change /veh CD79A (11719716_a_at) / RFU HIST1H1D (11736915_at) / Fold change /veh HIST1H1D (11736915_at) / RFU CASKIN2 (11723855_a_at) / Fold change /veh CASKIN2 (11723855_a_at) / RFU LOC730098 (11760151_x_at) / Fold change /veh LOC730098 (11760151_x_at) / RFU OR4N2 (11742367_at) / Fold change /veh OR4N2 (11742367_at) / RFU PRRT2 (11749266_a_at) / Fold change /veh PRRT2 (11749266_a_at) / RFU SNX32 (11753110_a_at) / Fold change /veh SNX32 (11753110_a_at) / RFU CDHR5 (11726645_a_at) / Fold change /veh CDHR5 (11726645_a_at) / RFU RCAN1 (11760418_a_at) / Fold change /veh RCAN1 (11760418_a_at) / RFU FAM167A (11723789_a_at) / Fold change /veh FAM167A (11723789_a_at) / RFU FAM26E (11764081_at) / Fold change /veh FAM26E (11764081_at) / RFU ISYNA1 (11749810_s_at) / Fold change /veh ISYNA1 (11749810_s_at) / RFU ACY1 (11761880_at) / Fold change /veh ACY1 (11761880_at) / RFU 11764098_at / Fold change /veh 11764098_at / RFU SAMD14 (11745864_x_at) / Fold change /veh SAMD14 (11745864_x_at) / RFU NPB (11741838_a_at) / Fold change /veh NPB (11741838_a_at) / RFU TMPRSS6 (11731388_a_at) / Fold change /veh TMPRSS6 (11731388_a_at) / RFU KRTAP10-2 (11738614_at) / Fold change /veh KRTAP10-2 (11738614_at) / RFU ARHGAP8 /// PRR5-ARHGAP8 (11727945_x_at) / Fold change /veh ARHGAP8 /// PRR5-ARHGAP8 (11727945_x_at) / RFU KRTAP5-7 /// NADSYN1 (11734609_at) / Fold change /veh KRTAP5-7 /// NADSYN1 (11734609_at) / RFU RASL12 (11751679_a_at) / Fold change /veh RASL12 (11751679_a_at) / RFU CDKN2B (11736163_a_at) / Fold change /veh CDKN2B (11736163_a_at) / RFU PRF1 (11729649_at) / Fold change /veh PRF1 (11729649_at) / RFU, ZNF638 /// ZNF638-IT1 / Fold change vs veh, ZNF638 /// ZNF638-IT1 / RFU, PANK3 / Fold change vs veh, PANK3 / RFU, SH3YL1 / Fold change vs veh, SH3YL1 / RFU, ZEB2 / Fold change vs veh, ZEB2 / RFU, NRIP1 / Fold change vs veh, NRIP1 / RFU, PTTG1IP / Fold change vs veh, PTTG1IP / RFU, CAPN2 / Fold change vs veh, CAPN2 / RFU, MED14 / Fold change vs veh, MED14 / RFU, SNORA58 / Fold change vs veh, SNORA58 / RFU, C1orf63 / Fold change vs veh, C1orf63 / RFU, LRRFIP1 / Fold change vs veh, LRRFIP1 / RFU, NDUFAF7 / Fold change vs veh, NDUFAF7 / RFU, SLC12A2 / Fold change vs veh, SLC12A2 / RFU, IBTK / Fold change vs veh, IBTK / RFU, ESF1 / Fold change vs veh, ESF1 / Fold change vs veh, TMEM50B / RFU, TAOK1 / Fold change vs veh, TAOK1 / RFU, ACBD3 / Fold change vs veh, ACBD3 / RFU, TMA16 / Fold change vs veh, TMA16 / RFU, RWDD3 / Fold change vs veh, RWDD3 / RFU, BCAT1 / Fold change vs veh, BCAT1 / RFU, EDEM3 / Fold change vs veh, EDEM3 / RFU, TMEM33 / Fold change vs veh, TMEM33 / RFU, WDR75 / Fold change vs veh, WDR75 / RFU, AHCTF1 / Fold change vs veh, AHCTF1 / RFU, TFRC / Fold change vs veh, TFRC / RFU, ZDHHC17 / Fold change vs veh, ZDHHC17 / RFU, NOM1 / Fold change vs veh, NOM1 / RFU, ARL8B / Fold change vs veh, ARL8B / RFU, ZBTB11 / Fold change vs veh, ZBTB11 / RFU, TAMM41 / Fold change vs veh, TAMM41 / RFU, KIAA1704 /// LOC100996395 / Fold change vs veh, KIAA1704 /// LOC100996395 / RFU, ING1 / Fold change vs veh, ING1 / RFU, TRMT61B / Fold change vs veh, TRMT61B / RFU, FUBP3 / Fold change vs veh, FUBP3 / RFU, TP53 / Fold change vs veh, TP53 / RFU, TNKS2 / Fold change vs veh, TNKS2 / RFU, ZFP14 / Fold change vs veh, ZFP14 / RFU, ACTR2 / Fold change vs veh, ACTR2 / RFU, PPP3R1 / Fold change vs veh, PPP3R1 / RFU, PIK3R1 / Fold change vs veh, PIK3R1 / RFU, HNRNPA1 / Fold change vs veh, HNRNPA1 / RFU, RNF170 / Fold change vs veh, RNF170 / RFU, ZNF28 / Fold change vs veh, ZNF28 / RFU, RNGTT / Fold change vs veh, RNGTT / RFU, OGT / Fold change vs veh, OGT / RFU, BRD1 / Fold change vs veh, BRD1 / RFU, MARS / Fold change vs veh, MARS / RFU, ZNF655 / Fold change vs veh, ZNF655 / RFU, FAHD1 / Fold change vs veh, FAHD1 / RFU, BDP1 / Fold change vs veh, BDP1 / RFU, LRRCC1 / Fold change vs veh, LRRCC1 / RFU, ARID1A / Fold change vs veh, ARID1A / RFU, ZNF146 / Fold change vs veh, ZNF146 / RFU, ZNF330 / Fold change vs veh, ZNF330 / RFU, GPN3 / Fold change vs veh, GPN3 / RFU, C9orf123 / Fold change vs veh, C9orf123 / RFU, N4BP2L2 / Fold change vs veh, N4BP2L2 / RFU, ARFIP1 / Fold change vs veh, ARFIP1 / RFU, FAM179B / Fold change vs veh, FAM179B / RFU, BCL10 / Fold change vs veh, BCL10 / RFU, UHRF1BP1L / Fold change vs veh, UHRF1BP1L / RFU, BET1 / Fold change vs veh, BET1 / RFU, CNOT2 / Fold change vs veh, CNOT2 / RFU, ZNF268 / Fold change vs veh, ZNF268 / Fold change vs veh, ZNF507 / RFU, DGCR2 / Fold change vs veh, DGCR2 / RFU, WDSUB1 / Fold change vs veh, WDSUB1 / Fold change vs veh, HSP90B1 /// MIR3652 / RFU, ADSS / Fold change vs veh, ADSS / RFU, GK / Fold change vs veh, GK / RFU, ZNF148 / Fold change vs veh, ZNF148 / RFU, TAF9 / Fold change vs veh, TAF9 / RFU, SLC1A5 / Fold change vs veh, SLC1A5 / RFU, SLMO2 / Fold change vs veh, SLMO2 / RFU, ABCC4 / Fold change vs veh, ABCC4 / RFU, LOC101060439 /// RAP1B / Fold change vs veh, LOC101060439 /// RAP1B / RFU, RFX7 / Fold change vs veh, RFX7 / RFU, GTPBP10 / Fold change vs veh, GTPBP10 / RFU, CNEP1R1 / Fold change vs veh, CNEP1R1 / RFU, BIVM-ERCC5 /// ERCC5 / Fold change vs veh, BIVM-ERCC5 /// ERCC5 / RFU, ILF3 / Fold change vs veh, ILF3 / RFU 11762660_at / Fold change /veh 11762660_at / RFU VCAN (11757783_s_at) / Fold change /veh VCAN (11757783_s_at) / RFU DDX43 (11728927_at) / Fold change /veh DDX43 (11728927_at) / RFU KRT8 (11758188_x_at) / Fold change /veh KRT8 (11758188_x_at) / RFU NKD1 (11759106_at) / Fold change /veh NKD1 (11759106_at) / RFU SRD5A1 (11742802_a_at) / Fold change /veh SRD5A1 (11742802_a_at) / RFU TPSAB1 /// TPSB2 (11721975_s_at) / Fold change /veh TPSAB1 /// TPSB2 (11721975_s_at) / RFU GSTM3 (11746129_a_at) / Fold change /veh GSTM3 (11746129_a_at) / RFU IL23R (11737362_x_at) / Fold change /veh IL23R (11737362_x_at) / RFU TMEM51 (11727254_a_at) / Fold change /veh TMEM51 (11727254_a_at) / RFU PIWIL2 (11732686_x_at) / Fold change /veh PIWIL2 (11732686_x_at) / RFU ORM1 (11744905_x_at) / Fold change /veh ORM1 (11744905_x_at) / RFU CCDC152 (11743942_at) / Fold change /veh CCDC152 (11743942_at) / RFU ECM1 (11717891_a_at) / Fold change /veh ECM1 (11717891_a_at) / RFU IL23R (11748794_a_at) / Fold change /veh IL23R (11748794_a_at) / RFU TNFAIP8L3 (11732012_x_at) / Fold change /veh TNFAIP8L3 (11732012_x_at) / RFU MBOAT4 (11741988_at) / Fold change /veh MBOAT4 (11741988_at) / RFU 11764193_at / Fold change /veh 11764193_at / RFU TMEM53 (11763286_at) / Fold change /veh TMEM53 (11763286_at) / RFU MAGEB2 (11727129_at) / Fold change /veh MAGEB2 (11727129_at) / RFU TMEM200A (11744735_a_at) / Fold change /veh TMEM200A (11744735_a_at) / RFU CCDC152 (11751479_a_at) / Fold change /veh CCDC152 (11751479_a_at) / RFU FAM211A (11726209_a_at) / Fold change /veh FAM211A (11726209_a_at) / RFU RGS16 (11746705_a_at) / Fold change /veh RGS16 (11746705_a_at) / RFU VCAN (11755009_s_at) / Fold change /veh VCAN (11755009_s_at) / RFU RHOB (11743442_s_at) / Fold change /veh RHOB (11743442_s_at) / RFU RGS16 (11720943_a_at) / Fold change /veh RGS16 (11720943_a_at) / RFU RGS16 (11720944_at) / Fold change /veh RGS16 (11720944_at) / RFU, VPS4B / Fold change vs veh, VPS4B / RFU, CREB1 / Fold change vs veh, CREB1 / RFU, DNAJC13 / Fold change vs veh, DNAJC13 / RFU, GNAQ / Fold change vs veh, GNAQ / RFU, CDK5R1 / Fold change vs veh, CDK5R1 / RFU, ZRANB3 / Fold change vs veh, ZRANB3 / RFU, CUL4A / Fold change vs veh, CUL4A / RFU, CCNY / Fold change vs veh, CCNY / RFU, UFL1 / Fold change vs veh, UFL1 / RFU, COG3 / Fold change vs veh, COG3 / RFU, DIAPH2 / Fold change vs veh, DIAPH2 / RFU, SKA2 / Fold change vs veh, SKA2 / RFU, AFF3 / Fold change vs veh, AFF3 / RFU, LMF1 / Fold change vs veh, LMF1 / RFU, IPO11 / Fold change vs veh, IPO11 / RFU, DFFB / Fold change vs veh, DFFB / RFU, FOXP1 / Fold change vs veh, FOXP1 / RFU, CARD8 / Fold change vs veh, CARD8 / RFU, STRN3 / Fold change vs veh, STRN3 / RFU, ADK / Fold change vs veh, ADK / RFU, RASSF2 / Fold change vs veh, RASSF2 / RFU, WIPF1 / Fold change vs veh, WIPF1 / RFU, LARP1B / Fold change vs veh, LARP1B / RFU, RASA1 / Fold change vs veh, RASA1 / RFU, RB1 / Fold change vs veh, RB1 / RFU, PPFIA1 / Fold change vs veh, PPFIA1 / RFU, MAT2A / Fold change vs veh, MAT2A / RFU, CCT5 / Fold change vs veh, CCT5 / RFU, WDR92 / Fold change vs veh, WDR92 / RFU, CUX1 / Fold change vs veh, CUX1 / RFU, TTC7A / Fold change vs veh, TTC7A / RFU, TMEM135 / Fold change vs veh, TMEM135 / RFU, DEPTOR / Fold change vs veh, DEPTOR / RFU, CPM / Fold change vs veh, CPM / RFU, DNAJB6 / Fold change vs veh, DNAJB6 / RFU, CACNA2D3 / Fold change vs veh, CACNA2D3 / RFU, DTX4 / Fold change vs veh, DTX4 / RFU, TFCP2 / Fold change vs veh, TFCP2 / RFU, GMCL1 /// GMCL1P1 / Fold change vs veh, GMCL1 /// GMCL1P1 / RFU, AEBP2 / Fold change vs veh, AEBP2 / RFU, SNHG1 /// SNORD22 /// SNORD25 /// SNORD26 /// SNORD27 /// SNORD28 /// SNORD29 /// SNORD31 / Fold change vs veh, SNHG1 /// SNORD22 /// SNORD25 /// SNORD26 /// SNORD27 /// SNORD28 /// SNORD29 /// SNORD31 / Fold change (Aza/veh), C12orf56 (ProbeSet 11735607_a_at) / Fold change (ACY-1035/veh), C12orf56 (ProbeSet 11735607_a_at) / Fold change (Aza/veh), FGFR1OP (ProbeSet 11751329_s_at) / Fold change (ACY-1035/veh), FGFR1OP (ProbeSet 11751329_s_at) / Fold change (Aza/veh), VPS36 (ProbeSet 11739960_a_at) / Fold change (ACY-1035/veh), VPS36 (ProbeSet 11739960_a_at) / RFU SYPL1 (11715823_x_at) / Fold change /veh SYPL1 (11715823_x_at) / RFU IGFBP7 (11715501_s_at) / Fold change /veh IGFBP7 (11715501_s_at) / RFU REEP3 (11722064_at) / Fold change /veh REEP3 (11722064_at) / RFU IGLL1 (11728026_x_at) / Fold change /veh IGLL1 (11728026_x_at): dose or concentration left out as unconfirmed",
  "settings": "ProbeSet 11747888_a_at; LIST D",
  "data": [
    {"smiles": "Nc1ccc(-c2cccs2)cc1NC(=O)c1ccc2c(c1)cc(C1CC1)n2CCN1CCOCC1", "note": "[ACY-1035]", "values": [
      {"measurement": "RFU, SH3YL1", "value": 63.67, "unit": "RFU"}
    ]}
  ]
}
